Patent US7261901B2, “Vaccine and compositions for the prevention and treatment of neisserial infections” (University of Iowa Research Foundation, priority 2001, dated 2007)

Experiments:
Ectocervical Cells = assay: Association and invasion (gentimicin-resistance) assays, primary ectocervical (pex) cells; assay type: cell-based, human
Description: (§1) 8. N. gonorrhoeae Attachment to and Invasion of Primary, Human, Cervical Cells. Primary cervical cell monolayers were infected with wild-type or PLD mutant gonococci as outlined above. Variable concentrations of Streptomyces spp. PLD (SsPLD) (Sigma), PMA, or 4-α phorbol were included in association (adherence and invasion) or invasion assays, as noted. Cervical cells were preincubated (30 minutes, 37° C.) with 200 nM PMA or 4-α phorbol before the addition of gonococci. 10 units ml^−1 SsPLD was added simultaneously with gonococci. Alternatively, where noted, cervical cell monolayers were pre-incubated (30 minutes, 37° C.) with pervanadate, which was made by mixing 100 μM ortho-sodium vanadate in 3 mM hydrogen peroxide. In separate assays, infection supernatants were collected from wild-type or PLD mutant-infected cervical cell monolayers, gonococci were removed by filtration through a 0.22 μm syringe filter (i.e., wild-type or mutant primed supernatants) and were added to association and/or invasion assays, as noted. The ability of gonococci to adhere to and/or invade pex and pen cells was quantitatively determined using standard gentimicin-resistance assays, performed as described previously (Edwards et al., 2000), and in which chemical or protein additives were included or excluded from the invasion assay as described above. The total association (i.e., adherence and invasion) of gonococci with pex and pen cells was quantitated by the omission of gentimicin from the above described invasion assay. Percent invasion of N. gonorrhoeae 1291 or 1291ΔPLDin the presence or absence of experimental additives was determined as a function of the original inoculum and the number of colonies formed with subsequent plating of the cellular lysate. A Kruskal-Wallis non-parametric analysis of variance was used to determine the statistical significance of the association and invasion assays described above.
N. gonorrhoeae Attachment to and Invasion of Primary, Human, Cervical Cells. Primary cervical cell monolayers were infected with wild-type or PLD mutant gonococci as outlined above. Variable concentrations of PtC (Sigma), ethanol, 2-butanol, or Streptomyces spp. PLD (SsPLD) (Sigma) were included in association (adherence and invasion) or invasion assays, as noted. PtC, ethanol, 2-butanol, or 10 units ml^−1 SsPLD were added simultaneously with gonococci. In separate assays, infection supernatants were collected from wild-type or PLD mutant-infected cervical cell monolayers, gonococci were removed by filtration through a 0.22 μm syringe filter (to yield primed wild-type or mutant supernatants), which were then added to association and/or invasion assays, as noted. The ability of gonococci to adhere to and/or invade pex and pen cells was quantitatively determined using standard gentimicin-resistance assays, performed as described previously (Edwards et al., 2000) and in which chemical or protein additives were included or excluded from the invasion assay as described above. The total association (i.e., adherence and invasion) of gonococci with pex and pen cells was quantitated by the omission of gentimicin from the above described invasion assay. Percent invasion of N. gonorrhoeae 1291 or 1291ΔPLD in the presence or absence of experimental additives was determined as a function of the original inoculum and the number of colonies formed with subsequent plating of the cellular lysate. Inhibition of gonococcal attachment and/or invasion by exogenous PtC, ethanol, or 2-butanol was determined as a normalized function of the ability of gonococci to attach to and/or invade primary cervical cells in the absence of the competimer inhibitor. A Kruskal-Wallis non-parametric analysis of variance was used to determine the statistical significance of the association and invasion assays described above.

gonococci = settings: 1.0, 0.1, or 0.01 percent alcohol, absence of cervical cells (data not shown)
Description: Consequently, it was determined if exogenously added PLD substrates could compete with cervical cell constituents for NgPLD activity and in doing so interfere with the role of NgPLD in gonococcal invasion.

Endocervical Cells = assay: Association and invasion (gentimicin-resistance) assays, primary endocervical (pen) cells; assay type: cell-based, human; settings: 1291 + 100 nM DPG
Description: as §1, with “Alternatively, where noted, cervical cell monolayers were pre-incubated (30 minutes, 37° C.) with pervanadate, which was made by mixing 100 μM ortho-sodium vanadate in 3 mM hydrogen peroxide. In separate assays, infection supernatants were collected from wild-type or PLD mutant-infected cervical cell monolayers, gonococci were removed by filtration through a 0.22 μm syringe filter (i.e., wild-type or mutant primed supernatants) and were added to association and/or invasion assays, as noted.” left out, “A Kruskal-Wallis non-parametric analysis of variance was used to determine the statistical significance of the association and invasion assays described above.” left out

primary cervical cells = assay: Association and invasion assays, primary cervical cells (cell type not specified); assay type: cell-based, human; settings: for intracellular survival of PLD mutant gonococci: 100 μM pervanadate or 200 nM PMA
Description: The anti-PLD antibody was screened for specificity to PLD using assays well-known to the art.
as §1

PLD = PLD activity (Amplex Red Phospholipase D Assay Kit) in gonococci, infected cervical cell lysates, fractions and supernatants; assay type: biochemical, N. gonorrhoeae
Description: (§2) 4. Determination of PLD Activity. PLD activity was accessed using the Amplex™ Red Phospholipase D Assay Kit (Molecular Probes, Eugene Oreg.). Wild-type and PLD mutant gonococci were suspended in PLD assay buffer to a final concentration of 10^7 bacteria ml^−1, and activity was determined according to the manufacturer's protocol. Assessment of PLD activity at acidic pH was determined in a two-step assay according to the manufacturer's protocol. For the first step, 10^8 gonococci were suspended in PBS with the pH adjusted to 3.0, 4.5, or 6.0. Gonococcal suspensions were diluted 10-fold in PLD assay buffer for the second step of the reaction. Cervical cell fractions were prepared as outlined below and PLD activity was assessed at neutral pH according to the manufacturer's protocol.
5. Fractionation of Primary Cervical Cells. Uninfected (control) and infected cervical cell monolayers were lysed in buffer A (50 mM tris, pH 7.5; 10 mM NaCl, 1 mM KCl; 2 mM MgCl2, 1 mM PMSF) by scraping cervical cells from tissue culture dishes placed on ice. The cell lysate was sonicated (two bursts of 20 seconds each). Cell debris and the nuclear fraction was removed by centrifugation (750×g, 10 minutes), and the supernatant from this spin was then subjected to filtration through a low-protein binding 0.22 μm syringe filter to ensure removal of gonococci. Alternatively, gonococci were removed by immunoprecipitation (as described by Wen et al., 2000) using the monoclonal antibody, 2C3, which recognizes the H.8 outer membrane protein of the pathogenic Neisseria. Sucrose was added to the resulting gonococcus-depleted supernatant (S1) to a final concentration of 300 mM. Ultracentrifugation (150,000×g, 90 minutes) was then performed to produce the plasma membrane-(pellet) and cytosol (supernatant 2, S2)-enriched fractions. The membrane-enriched fraction was resuspended in PLD assay buffer (50 mM Tris, 5 mM CaCl2, pH 8.0). S2 was concentrated by filtration through Centricon YM-30 centrifugal filter units (Millipore) after which cytosolic constituents were recovered in PLD assay buffer. Where indicated, prior to infection studies primary pex and pen cell monolayers were treated with 300 nM wortmannin (Sigma) (2 hours, 37° C.) or 1 μM cytochalasin D (Sigma) (30 minutes, 37° C.) to inhibit macropinocytosis of gonococci. Wortmannin and cytochalasin D were maintained in cervical cell cultures during the course of infection.
as §2, with “Determination of” for “4. Determination of”, “Assessment of gonococcal PLD activity” for “Assessment of PLD activity”
Fractionation of Primary Cervical Cells. Uninfected (control) and infected cervical cell monolayers were lysed in buffer A (50 mM tris, pH 7.5; 10 mM NaCl, 1 mM KCl; 2 mM MgCl2, 1 mM PMSF) by scraping cervical cells from tissue culture dishes placed on ice. The cell lysate was sonicated (two bursts of 20 seconds each). […] Sucrose was added to the resulting gonococcus-depleted supernatant (S1) to a final concentration of 300 mM. Ultracentrifugation (150,000×g, 90 minutes) was then performed to produce the plasma membrane-(pellet) and cytosol (supernatant 2, S2)-enriched fractions. The membrane-enriched fraction was resuspended in PLD assay buffer (50 mM Tris, 5 mM CaCl2, pH 8.0). […]

CR3 = CR3 surface expression on primary cervical cells (ELISA with H5A4); assay type: cell-based, human; settings: for CR3 recruitment to the cervical cell surface: PLD mutant infected cells, 100 μM pervanadate or 200 nM PMA; for CR3 surface level expression: uninfected cervical cells
Description: As described hereinbelow, primary cervical cells were seeded in 96-well microtiter plates to comparatively quantitate surface level expression of CR3. In the procedure, cells were (i) uninfected; (ii) challenged with wild-type gonococci; (iii) challenged with PLD-mutant gonococci; and/or (iv) challenged with filtered, primed (see infra) wild-type or PLD-mutant gonococcal supernatants. After removal of the infection supernatant, cell monolayers were rinsed, fixed and subsequently labeled with an antibody (anti-CD11b antibody H5A4; Hildreth and August, 1985) specific for the CR3 I-domain subunit followed by an HRP antibody-conjugate (commercially available from Kirkegaard & Perry Laboratories, Gaithersburg, Md.) using standard ELISA protocols. Absorbance of the o-phenylenediamine dihydrochloride peroxidase substrate was determined spectrophotometrically at 490 nm (FIG. 15).
7. Determination of CR3 Surface Expression on Primary Cervical Cells. Pex and pen cells were passed to 96-well microtiter plates and allowed to grow to confluence. Cervical cells were then challenged with wild-type or PLD mutant gonococci after which the infection medium was removed and cells were rinsed thrice with PBS. Cells were fixed with 2% paraformaldehyde. Prior to immuno-analysis of CR3 surface level expression, cells were again rinsed with PBS. Immunoassays were then performed according to standard ELISA protocols using the H5A4 anti-CD11b (i.e., CR3) primary and peroxidase-conjugated secondary antibodies. Absorbance of the o-phenylenediamine dihydrochloride peroxidase substrate was determined spectrophotometrically at 490 nm. Primary antibody was omitted from one well, and the secondary antibody was omitted from a second well, which served as a control for endogenous peroxidase activity. Where indicated 200 nM phorbol myristate (PMA), 200 nM 4-α phorbol, 100 μM pervanadate, 3 mM hydrogen peroxide, or gonococci-depleted supernatants collected from wild-type or PLD mutant infection studies were included in the infection studies as outlined below.
Determination of CR3 Surface Expression on Primary Cervical Cells. Pex and pen cells were passed to 96-well microtiter plates and allowed to grow to confluence. Cervical cells were then challenged with wild-type or PLD mutant gonococci after which the infection medium was removed and cells were rinsed thrice with PBS. Cells were fixed with 2% paraformaldehyde. Prior to immuno-analysis of CR3 surface level expression, cells were again rinsed with PBS. Immunoassays were then performed according to standard ELISA protocols using the H5A4 anti-CD11b (i.e., CR3) primary and peroxidase-conjugated secondary antibodies. Absorbance of the o-phenylenediamine dihydrochloride peroxidase substrate was determined spectrophotometrically at 495 nm. […]

[1] = 1291 WT, alcohol competimer 0.01 %
[2] = 1291 WT, alcohol competimer 0.1 %
[3] = 1291 WT, alcohol competimer 1.0 %
[4] = Ectocervical Cells, 1291 + 100 nM DPG

CCC(C)O (stereo not drawn) [2-Butanol, 2-butanol]
Invasion (%) (Ectocervical Cells; [1]): 2.8661 (0.53) % | Invasion (%) (Ectocervical Cells; [2]): 2.7087 (0.47) % | Invasion (%) (Ectocervical Cells; [3]): 2.6869 (0.47) % | Invasion (%) (Ectocervical Cells; 1291ΔPLD, alcohol competimer 0.01 %): 0.2819 (0.02) % | Invasion (%) (Ectocervical Cells; 1291ΔPLD, alcohol competimer 0.1 %): 0.3172 (0.03) % | Invasion (%) (Ectocervical Cells; 1291ΔPLD, alcohol competimer 1.0 %): 0.2960 (0.05) % | survival of gonococci (gonococci): no significant difference in survival

O=C(O)C(COP(=O)(O)O)OP(=O)(O)O (stereo not drawn) [DPG, 2,3-diphosphoglycerate]
Association, Mean (Ectocervical Cells; [4]): 15.31 | Invasion, Mean (Ectocervical Cells; [4]): 0.36 | Association, Mean (Endocervical Cells): 6.97 | Invasion, Mean (Endocervical Cells): 0.21 | effect on PLD activity, association and invasion of cervical cells by gonococci (primary cervical cells): inhibits gonococcal association and invasion

CCO [Ethanol, ethanol]
Inhibition (%) (Ectocervical Cells; [1]): 74.9582 (0.87) % | Invasion (%) (Ectocervical Cells; [1]): 0.6957 (0.02) % | Inhibition (%) (Ectocervical Cells; [2]): 80.9243 (1.41) % | Invasion (%) (Ectocervical Cells; [2]): 0.5288 (0.01) % | Invasion (%) (Ectocervical Cells; [3]): 0.2564 (0.01) % | Inhibition (%) (Ectocervical Cells; 1291 WT, alcohol competimer 1.0 %, variance in parentheses): 90.7346 (0.92) % | survival of gonococci (gonococci): no significant difference in survival

OO [H2O2, hydrogen peroxide]
effect on gonococcal association, invasion or CR3 cell surface recruitment (primary cervical cells; negative controls: 200 nM 4-α phorbol, 3 mM hydrogen peroxide): No effect was observed | PLD activity (Table 3, untitled) (PLD; No cervical cells): 0.961 | Mean PLD activity, No Cells (PLD; gonococci alone and assay control (Table 7B, C)): 0.885 | PLD activity, Assay Controls (Table 4C) (PLD; positive control): 0.781 | PLD activity, Assay Controls, mean (PLD; positive control (Table 8A)): 1.557

CCCCCCCCCCCCCC(=O)O[C@@H]1[C@@H](C)[C@@]2(O)[C@@H](C=C(CO)C[C@]3(O)C(=O)C(C)=C[C@@H]23)[C@@H]2C(C)(C)[C@]12OC(C)=O [PMA, phorbol myristate]
CR3 recruitment to the cervical cell surface (CR3): rescued CR3 recruitment | CR3 surface level expression (CR3): increased CR3 surface level expression | intracellular survival of PLD mutant gonococci (primary cervical cells): partially restored intracellular survival

pervanadate
CR3 recruitment to the cervical cell surface (CR3): rescues CR3 recruitment | CR3 surface level expression (CR3): does not stimulate CR3 surface recruitment | intracellular survival of PLD mutant gonococci (primary cervical cells): not sufficient to allow the intracellular survival
